Key:
Format in all cases: in vivo
Spodoptera frugiperda = Spodoptera frugiperda larvae test (sprayed cabbage leaves)
Source text: (§1) The expected action for a given combination of two active compounds can be calculated as follows, according to S. R. Colby, Weeds 15 (1967), 20-22:
(§2) If • X is the kill rate, expressed as a percentage of the untreated control, when employing active compound A at an application rate of m g/ha or in a concentration of m ppm, • Y is the kill rate, expressed as a percentage of the untreated control, when employing active compound B at an application rate of n g/ha or in a concentration of n ppm and • E is the kill rate, expressed as a percentage of the untreated control, when employing active compounds A and B at application rates of m and n g/ha or in a concentration of m and n ppm, then
(§3) If the actual insecticidal kill rate exceeds the calculated value, the kill of the combination is superadditive, i.e. a synergistic effect is present. In this case, the actually observed kill rate must exceed the value calculated using the above formula for the expected kill rate (E).
(§4) To produce a suitable preparation of active compound, 1 part by weight of active compound is mixed with the stated amounts of solvents and emulsifier, and the concentrate is diluted with emulsifier-containing water to the desired concentration.
Cabbage leaves (Brassica oleracea) are treated by spraying with the active compound preparation of the desired concentration and are populated with larvae of the army worm (Spodoptera frugiperda) while the leaves are still moist.
After the desired period of time, the kill in % is determined. 100% means that all caterpillars have been killed; 0% means that none of the caterpillars have been killed. The kill rates determined are entered into Colby's formula.

Tetranychus urticae = assay: Tetranychus test (OP-resistant/spray treatment)
Source text: as §1, §2, §3
To produce a suitable preparation of active compound, 1 part by weight of active compound is mixed with the stated amounts of solvents and emulsifier, and the concentrate is diluted with emulsifier-containing water to the desired concentration. […]
After the desired period of time, the activity in % is determined. […]

Phaedon cochleariae = Phaedon cochleariae larvae test (sprayed cabbage leaves)
Source text: as §1, §2, §3, §4
Cabbage leaves (Brassica oleracea) are treated by spraying with the active compound preparation of the desired concentration and are populated with larvae of the mustard beetle (Phaedon cochleariae) while the leaves are still moist.
After the desired period of time, the kill in % is determined. 100% means that all beetle larvae have been killed; 0% means that none of the beetle larvae have been killed. The kill rates determined are entered into Colby's formula.

Myzus persicae = Myzus persicae test (spray on infested cabbage leaves)
Source text: as §1, §2, §3, §4
Cabbage leaves (Brassica oleracea) which are heavily infested by the green peach aphid (Myzus persicae) are treated by spraying with the active compound preparation of the desired concentration.
After the desired period of time, the kill in % is determined. 100% means that all aphids have been killed; 0% means that none of the aphids have been killed. The kill rates determined are entered into Colby's formula.

Compound: CCC(C)(C)C(=O)OC1=C(c2ccc(Cl)cc2Cl)C(=O)OC12CCCCC2 [spirodiclofen]
- Kill in % after 6d (Spodoptera frugiperda; 0.8 g/ha): 0%

Compound: Cc1cc(C)c(C2=C(OC(=O)CC(C)(C)C)C3(CCCC3)OC2=O)c(C)c1 [spiromesifen]
- Kill in % after 2d (Tetranychus urticae; 4 g/ha): 0%
- Kill in % after 6d (Phaedon cochleariae; 4 g/ha): 0%
- Kill in % after 6d (Spodoptera frugiperda; 0.8 g/ha): 0%
- Kill in % after 6d (Myzus persicae; 100 g/ha): 50%

Compound: CCOC(=O)OC1=C(c2cc(C)ccc2C)C(=O)N[C@]12CC[C@@H](OC)CC2 [spirotetramat]
- Kill in % after 2d (Phaedon cochleariae; 20 g/ha): 0%
- Kill in % after 6d (Spodoptera frugiperda; 0.8 g/ha): 0%
- Kill in % after 6d (Myzus persicae; 0.8 g/ha): 0%

Compound: spinetoram
- Kill in % after 2d (Tetranychus urticae; 0.8 g/ha): 0%
- Kill in % after 6d (Phaedon cochleariae; 0.8 g/ha): 50%
- Kill in % after 2d (Phaedon cochleariae; 4 g/ha): 50%
- Kill in % after 6d (Spodoptera frugiperda; 0.16 g/ha): 83%
- Kill in % after 6d (Myzus persicae; 0.16 g/ha): 0%
- Kill in % after 6d (Myzus persicae; 20 g/ha): 0%
